Results: article PMC9949698, “Visible-Light-Controlled Histone Deacetylase Inhibitors for Targeted Cancer Therapy” (Journal of Medicinal Chemistry, 2023)
Read-outs that look alike come from different tables or passages of the source.

What was measured:
[1] = UV–vis spectra and optimal isomerization wavelengths; format: physicochemical; conditions: for λcis (optimal wavelength trans to cis) / λtrans (optimal wavelength cis to trans): UV–vis at 25–50 μM in DMSO, Teleopto plates (Table 1)
Protocol: Ultraviolet–visible (UV–vis) spectra were recorded using a Tecan Spark 20M Multimode Microplate reader. Samples (200 μL of compound solution/well) were prepared at […] in DMSO. Samples were measured between 300 and 800 nm with 2 nm fixed intervals in 96-well transparent plates. Illumination at different wavelengths was performed for 2 min using 96-well LED array plates (LEDA Teleopto) placed below the samples. […] Potencies were measured using a Thorlabs PM100D power energy meter connected with a standard photodiode power sensor (S120VC).

[2] = E/Z composition under light or temperature conditions by HPLC; format: physicochemical
HeLa cells = assay: HeLa cell viability, MTS assay, dark or preillumination; format: cell-based; conditions: for IC50: Homo sapiens, HeLa; for IC50(dark)/IC50(light): Table 5; for activity under dark and illumination conditions: in words
Protocol: We then proceeded to evaluate the effect of the compounds in a viability assay against HeLa cells.
HeLa, MCF7, and HT29 cells were maintained in adherent cultures in DMEM supplemented with 10% FBS. KG1 cells were maintained in a suspension culture in IMDM supplemented with 20% FBS.
Stock solutions of the compounds were heated to 60 or 80 °C to obtain solutions with the maximum amount of the trans isomer (dark). […] The solutions were then serially diluted with DMEM to give 20 times the desired final concentration, maintaining DMSO at 10%.
Cells were seeded in 96-well black flat bottom plates with a clear bottom at a density of 5 × 10^3 cells/well (HeLa) or 1 × 10^4 cells/well (MCF7, HT29, and KG1), in a volume of 95 μL.
Viability of HeLa, MCF7, and […] cells was determined with a CellTiter 96 assay (Promega), according to the manufacturer’s instructions. Briefly, 20 μL of CellTiter 96 reagent was added to each well, the plates were incubated at 37 °C for 2 h, and the absorbance at 490 nm was recorded. Viability is expressed as a percentage with respect to the nontreated cells.

human recombinant HDAC1 = target: T1, human recombinant HDAC1 (Homo sapiens, UniProt Q13547); assay: Fluorogenic assay with human recombinant HDAC1, dark or illumination; format: biochemical; conditions: for relative activity of cis and trans forms: dark vs light, in words
T1 construct: purchased BPS Bioscience
T1 sequence (Q13547 whole entry): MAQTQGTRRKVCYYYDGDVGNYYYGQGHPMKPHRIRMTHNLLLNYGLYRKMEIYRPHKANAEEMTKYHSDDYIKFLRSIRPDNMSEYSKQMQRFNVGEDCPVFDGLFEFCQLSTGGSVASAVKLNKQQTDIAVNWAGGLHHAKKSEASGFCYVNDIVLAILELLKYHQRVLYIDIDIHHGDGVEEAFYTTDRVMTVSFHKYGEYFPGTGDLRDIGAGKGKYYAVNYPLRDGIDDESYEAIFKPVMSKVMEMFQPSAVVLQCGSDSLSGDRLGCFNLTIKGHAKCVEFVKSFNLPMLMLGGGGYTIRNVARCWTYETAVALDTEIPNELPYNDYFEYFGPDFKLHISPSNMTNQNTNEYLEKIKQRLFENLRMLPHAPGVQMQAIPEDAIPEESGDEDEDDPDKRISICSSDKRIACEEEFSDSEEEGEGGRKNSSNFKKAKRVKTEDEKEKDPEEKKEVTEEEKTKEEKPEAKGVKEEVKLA
Protocol: To study the inhibition of HDAC enzymes by the compounds, we used a fluorogenic assay with human recombinant HDAC1.[32] The enzyme was incubated with an acetylated substrate and each inhibitor for 1 h at room temperature, under either dark or light conditions. We opted for illumination throughout the incubation period to maintain the maximum proportion of cis under light conditions. […] Then, the deacetylated substrate generated a fluorescent coumarin after incubation of the mixture with trypsin at 37 °C for 20 min.
Stock solutions of the compounds were diluted to 1 mM in DMSO and then heated to 60 or 80 °C to obtain solutions with the maximum amount of the trans isomer (dark). […] The 1 mM solutions were then serially diluted with HDAC buffer to 10 times the desired concentration, maintaining DMSO at 10%.
In control wells without the compound, inhibitor, or enzyme, HDAC buffer was added instead. […] Then, 50 μL of the stop solution was added and the plates were incubated at 37 °C for 20 min in the dark. Fluorescence was measured at a λem of 460 nm and a λex of 380 nm. Enzyme activity is expressed as a percentage with respect to the nontreated cells, after subtracting the blank (well with no enzyme and no compound).

[3] = UV–vis spectra at 25–50 μM in DMSO (Table 1)
[4] = HPLC at isosbestic point (310–338 nm), 100 μM in DMSO after illumination with λcis (Table 1)
[5] = HPLC at isosbestic point (310–338 nm), 100 μM in DMSO after illumination with λtrans (Table 1)
[6] = dark, 48 h, read-out: IC50 dark (concentration that reduces cell viability by half)
[7] = preillumination 380 nm, 48 h, read-out: IC50 light (concentration that reduces cell viability by half)
[8] = supplementary CSV, read-out: HeLa MTS IC50 light
[9] = dark vs 365 or 380 nm (Table 2), fold
[10] = dark, 1 h at room temperature (Table 2), read-out: IC50 dark
[11] = illumination 365 or 380 nm, 1 h at room temperature (Table 2), read-out: IC50 light
[12] = UV–vis spectra at 25–100 μM in DMSO (Table 3)
[13] = HPLC at isosbestic point (290–336 nm), 100 μM in DMSO after illumination with λcis (Table 3)
[14] = HPLC at isosbestic point (290–336 nm), 100 μM in DMSO after illumination with λtrans (Table 3)
[15] = continuous illumination 550 nm (Table 4), read-out: IC50 light
[16] = supplementary CSV, read-out: HDAC1 IC50 light
[17] = dark (Table 4), read-out: IC50 dark
[18] = supplementary CSV, read-out: HDAC1 IC50 dark

CN(C)c1ccc(/N=N/c2ccc(/C=C/C(=O)Nc3ccccc3N)cc2)cc1 [Compound 12, (E)-N-(2-Aminophenyl)-3-(4-((E)-(4-(dimethylamino)phenyl)diazenyl)phenyl)acrylamide]
λcis (optimal wavelength trans to cis) [1]: 470 nm | λmax trans [1, 3]: 462 nm

COc1ccc(/N=N/c2ccc(C(=O)NO)cc2)cc1 [Compound 17, (E)-N-Hydroxy-4-((4-methoxyphenyl)diazenyl)benzamide]
λcis (optimal wavelength trans to cis) [1]: 380 nm | λtrans (optimal wavelength cis to trans) [1]: 550 nm | λmax trans [1, 3]: 360 nm | % cis at λcis [2, 4]: 84% | % trans at λtrans [2, 5]: 92% | IC50 (HeLa cells; [6]): ~25 µM | IC50 (HeLa cells; [7]): ~25 µM | IC50 (HeLa cells; supplementary CSV, read-out: HeLa MTS IC50 dark): 25 µM | IC50 (HeLa cells; [8]): 25 µM | IC50(dark)/IC50(light) (HeLa cells): ≈1 | IC50(dark)/IC50(light) (human recombinant HDAC1; [9]): 0.14 | relative activity of cis and trans forms (human recombinant HDAC1): more active in the trans form than in the cis form | IC50 (human recombinant HDAC1; [10]): 0.42 µM | IC50 (human recombinant HDAC1; [11]): 2.9 µM

COc1ccc(/N=N/c2ccc(C(=O)Nc3ccccc3N)cc2)cc1 [Compound 18, (E)-N-(2-Aminophenyl)-4-((4-methoxyphenyl)diazenyl)benzamide]
λcis (optimal wavelength trans to cis) [1]: 380 nm | λtrans (optimal wavelength cis to trans) [1]: 550 nm | λmax trans [1, 3]: 364 nm | % cis at λcis [2, 4]: 82% | % trans at λtrans [2, 5]: 79% | IC50 (HeLa cells; [7]): ~19 µM | IC50 (HeLa cells; [8]): 19 µM | IC50(dark)/IC50(light) (HeLa cells): >5.3 | IC50(dark)/IC50(light) (human recombinant HDAC1; [9]): 6 | IC50 (human recombinant HDAC1; [10]): 1.2 µM | IC50 (human recombinant HDAC1; [11]): 0.2 µM

CN(C)c1ccc(/N=N/c2ccc(C(=O)NO)cc2)cc1 [Compound 19, (E)-4-((4-(Dimethylamino)phenyl)diazenyl)-N-hydroxybenzamide]
λmax trans [1, 3]: 446 nm

COc1ccc(/N=N/c2ccc(CCC(=O)Nc3ccccc3N)cc2)cc1 [Compound 21, (E)-N-(2-Aminophenyl)-3-(4-((4-methoxyphenyl)diazenyl)phenyl)propanamide]
λcis (optimal wavelength trans to cis) [1]: 380 nm | λtrans (optimal wavelength cis to trans) [1]: 550 nm | λmax trans [1, 3]: 354 nm | % cis at λcis [2, 4]: 87% | % trans at λtrans [2, 5]: 84% | IC50(dark)/IC50(light) (human recombinant HDAC1; [9]): >2.9 | relative activity of cis and trans forms (human recombinant HDAC1): active only in the cis form | IC50 (human recombinant HDAC1; [10]): > 10 µM | IC50 (human recombinant HDAC1; [11]): 3.4 µM

COc1cc(Cl)c(/N=N/c2c(Cl)cc(/C=C/C(=O)Nc3ccccc3N)cc2Cl)c(Cl)c1 [Compound 32b, (E)-N-(2-Aminophenyl)-3-(3,5-dichloro-4-((E)-(2,6-dichloro-4-methoxyphenyl)diazenyl)phenyl)acrylamide]
λcis [1, 12]: 550 nm | λmax cis [1, 12]: 452 nm | λmax trans [1, 12]: 338 nm | λtrans [1, 12]: 455 nm | % cis at λcis [2, 13]: 45% | % trans at λtrans [2, 14]: 88% | IC50 (human recombinant HDAC1; [15]): ~10 µM | IC50 (human recombinant HDAC1; [16]): 10 µM

COc1ccc(/N=N/c2ccc(/C=C/C(=O)Nc3ccccc3N)cc2F)c(F)c1 [Compound 32d, (E)-N-(2-Aminophenyl)-3-(3-fluoro-4-((E)-(2-fluoro-4-methoxyphenyl)diazenyl)phenyl)acrylamide]
λcis [1, 12]: 380 nm | λmax cis [1, 12]: 448 nm | λmax trans [1, 12]: 388 nm | λtrans [1, 12]: 550 nm | % cis at λcis [2, 13]: 67% | % trans at λtrans [2, 14]: 59% | IC50(dark)/IC50(light) (human recombinant HDAC1; Table 4): ≈22 | IC50 (human recombinant HDAC1; [17]): ~10 µM | IC50 (human recombinant HDAC1; [18]): 10 µM

COc1ccc(/N=N/c2ccc(/C=C/C(=O)Nc3ccccc3N)cc2Cl)c(Cl)c1 [Compound 32e, (E)-N-(2-Aminophenyl)-3-(3-chloro-4-((E)-(2-chloro-4-methoxyphenyl)diazenyl)phenyl)acrylamide]
λcis [1, 12]: 380 nm | λmax cis [1, 12]: 464 nm | λmax trans [1, 12]: 396 nm | λtrans [1, 12]: 455 nm | % cis at λcis [2, 13]: 64% | % trans at λtrans [2, 14]: 62% | IC50 (human recombinant HDAC1; continuous illumination 380 nm (Table 4), read-out: IC50 light): > 10 µM | IC50 (human recombinant HDAC1; [17]): > 10 µM | IC50 (human recombinant HDAC1; [18]): > 10 µM | IC50 (human recombinant HDAC1; [16]): > 10 µM

CN(C)c1cc(F)c(/N=N/c2c(F)cc(/C=C/C(=O)Nc3ccccc3N)cc2F)c(F)c1 [Compound 33a, (E)-N-(2-Aminophenyl)-3-(4-((E)-(4-(dimethylamino)-2,6-difluorophenyl)diazenyl)-3,5-difluorophenyl)acrylamide]
λcis [1, 12]: 420 nm | λmax trans [1, 12]: 430 nm | λtrans [1, 12]: 550 nm | activity under dark and illumination conditions (HeLa cells): inactive | activity at the highest tested concentration in the dark (human recombinant HDAC1; 10 μM, dark): no or little activity | IC50(dark)/IC50(light) (human recombinant HDAC1; Table 4): >8.3 | IC50 under illumination, in words (human recombinant HDAC1; continuous illumination): low micromolar range

CN(C)c1cc(Cl)c(/N=N/c2c(Cl)cc(/C=C/C(=O)Nc3ccccc3N)cc2Cl)c(Cl)c1 [Compound 33b, (E)-N-(2-Aminophenyl)-3-(3,5-dichloro-4-((E)-(2,6-dichloro-4-(dimethylamino)phenyl)diazenyl)phenyl)acrylamide]
λcis [1, 12]: 420 nm | λmax trans [1, 12]: 412 nm | λtrans [1, 12]: 550 nm | activity under dark and illumination conditions (HeLa cells): inactive | IC50(dark)/IC50(light) (human recombinant HDAC1; Table 4): >2 | IC50 (human recombinant HDAC1; [17]): > 10 µM

COc1cc(Cl)c(/N=N/c2c(Cl)cc(C(=O)Nc3ccccc3N)cc2Cl)c(Cl)c1 [Compound 38b, (E)-N-(2-Aminophenyl)-3,5-dichloro-4-((2,6-dichloro-4-methoxyphenyl)diazenyl)benzamide]
λcis [1, 12]: 550 nm | λmax cis [1, 12]: 452 nm | λmax trans [1, 12]: 336 nm | λtrans [1, 12]: 455 nm | % cis at λcis [2, 13]: 46% | % trans at λtrans [2, 14]: 84%

COc1cc(F)c(/N=N/c2c(F)cc(/C=C/C(=O)NO)cc2F)c(F)c1 [Compound 39, (E)-3-(4-((E)-(2,6-Difluoro-4-methoxyphenyl)diazenyl)-3,5-difluorophenyl)-N-hydroxyacrylamide]
λcis [1, 12]: 550 nm | λmax cis [1, 12]: 438 nm | λmax trans [1, 12]: 358 nm | λtrans [1, 12]: 455 nm | % cis at λcis [2, 13]: 72% | % trans at λtrans [2, 14]: 83% | IC50 (HeLa cells; [6]): 6.7 µM | IC50 (HeLa cells; preillumination 550 nm, 48 h, read-out: IC50 light (concentration that reduces cell viability by half)): 13 µM | IC50(dark)/IC50(light) (HeLa cells): 0.52 | IC50(dark)/IC50(light) (human recombinant HDAC1; Table 4): 2.6 | IC50 (human recombinant HDAC1; [15]): 0.054 µM | IC50 (human recombinant HDAC1; [17]): 0.14 µM
